# Reference: the supplement of paper PMC10702517
# ± gives the standard deviation.
# Assays:
# [1] = chemical recovery by SPE of plasma after PDMS sampling; higher = better extraction; conditions: pooled human plasma, extraction method: HLB SPE of plasma after PES
# [2] = chemical recovery from spiked human plasma; higher = better extraction; conditions: pooled human plasma
# [3] = chemical recovery into PDMS from spiked human plasma; higher = better extraction; conditions: pooled human plasma, extraction method: PES with PDMS
# [4] = extraction method: PES+SPE (3 d PDMS equilibration then HLB SPE)
# [5] = extraction method: SPE only (HLB 96-well)
# [6] = extraction method: SPE only (HLB 96-well), PES comparison experiment
# [7] = extraction method: solvent precipitation (ACN + hexane)
# 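Throughout, for chemical recovery by SPE of plasma after PDMS sampling: over 400 spiked chemicals quantified by LC-HRMS or GC-HRMS via internal standard calibration, recovery relative to spike mix added to unspiked plasma extract to correct matrix effects.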
Compound,chemical recovery by SPE of plasma ([1]; equilibration time (d): 1) [%],chemical recovery by SPE of plasma ([1]; equilibration time (d): 3) [%],chemical recovery by SPE of plasma ([1]; equilibration time (d): 6) [%],"chemical recovery [2, 4] [%]","chemical recovery [2, 5] [%]","chemical recovery [2, 6] [%]","chemical recovery [2, 7] [%]",chemical recovery into PDMS ([3]; equilibration time (d): 1) [%],chemical recovery into PDMS ([3]; equilibration time (d): 3) [%],chemical recovery into PDMS ([3]; equilibration time (d): 6) [%]
COc1ccc(C(=O)c2ccccc2)c(O)c1 [Benzophenone-3],1.5 ± 0.48,1.88 ± 0.31,1.41 ± 0.17,41.3 ± 8.9,28.9 ± 1.7,33.1 ± 5.5,65 ± 3.6,35.5 ± 1.5,38.2 ± 2.1,38.6 ± 4.5
CCCCC(=O)O[C@]1(C(=O)CO)[C@@H](C)C[C@H]2[C@@H]3CCC4=CC(=O)C=C[C@]4(C)[C@@]3(F)[C@@H](O)C[C@@]21C [Betamethasone-17-valerate],–,26.8 ± 4.2,19.1 ± 4.2,–,–,41.7 ± 7.8,–,12.9 ± 1.3,18.8 ± 1.3,20.1 ± 1.2
CC(C)(Oc1ccc(CCNC(=O)c2ccc(Cl)cc2)cc1)C(=O)O [Bezafibrate],52.7 ± 6.2,56.9 ± 2.6,53.6 ± 2.6,47.8 ± 3.6,45.5 ± 3.2,52.7 ± 4.8,74.9 ± 2.3,0.000935 ± 0.0016,0.00082 ± 0.0014,–
c1ccc(-c2ccc(C(c3ccccc3)n3ccnc3)cc2)cc1 (stereo not drawn) [Bifonazol],0.932 ± 0.2,0.479 ± 0.14,0.0513 ± 0.051,–,–,46.6 ± 10,–,38.6 ± 3.1,38.5 ± 4.5,35.7 ± 4.3
CC(C)NCC(O)COc1ccc(COCCOC(C)C)cc1 (stereo not drawn) [Bisoprolol],32.2 ± 3.3,34.4 ± 3.7,31.1 ± 2.7,26.7 ± 3.1,42.2 ± 4,47.4 ± 6.3,70.7 ± 1.7,0.0185 ± 0.032,–,–
O=C(Nc1ccccc1-c1ccc(Cl)cc1)c1cccnc1Cl [Boscalid],4.82 ± 0.75,5.2 ± 0.48,3.13 ± 0.17,63.9 ± 10,59.7 ± 2.4,48.2 ± 7.4,81.6 ± 1.8,41.6 ± 1.9,45.5 ± 2.2,44.7 ± 0.64
COc1ccccc1Oc1c(NS(=O)(=O)c2ccc(C(C)(C)C)cc2)nc(-c2ncccn2)nc1OCCO [Bosentan],40.6 ± 4.4,48.7 ± 5.1,42.2 ± 6.5,–,–,49.7 ± 11,75.4 ± 4.9,–,0.517 ± 0.46,0.935 ± 0.25
N#Cc1cc(Br)c(O)c(Br)c1 [Bromoxynil],58.5 ± 9.5,62.9 ± 3.1,58.6 ± 2.6,51 ± 4.9,43.9 ± 2.5,59.5 ± 6.2,68.2 ± 6.9,–,0.00783 ± 0.014,–
CCCC1O[C@@H]2C[C@H]3[C@@H]4CCC5=CC(=O)C=C[C@]5(C)[C@H]4[C@@H](O)C[C@]3(C)[C@]2(C(=O)CO)O1 (stereo partly drawn) [Budesonide],35.3 ± 6.4,–,25 ± 2.6,–,–,50.5 ± 7,–,4.21 ± 7.3,–,22.6 ± 1.5
CCCCc1c(C)nc(NCC)nc1OS(=O)(=O)N(C)C [Bupirimate],–,0.147 ± 0.26,–,–,–,48.9 ± 8.9,–,40.3 ± 1.4,43.9 ± 4.2,41.4 ± 2.6
CCOc1nc2cccc(C(=O)O)c2n1Cc1ccc(-c2ccccc2-c2nnn[nH]2)cc1 [Candesartan],48 ± 8.7,50.1 ± 3,47.8 ± 4.2,41.3 ± 6.7,42 ± 8,36.9 ± 3.9,58.8 ± 12,–,–,0.00245 ± 0.0094
NC(=O)N1c2ccccc2C=Cc2ccccc21 [Carbamazepine],25.4 ± 2.9,21.1 ± 2.3,13.6 ± 1.4,61.4 ± 6.2,48.5 ± 5.5,52.6 ± 6.1,72.3 ± 2.5,22.2 ± 1.2,28.4 ± 2.1,30.7 ± 1.8
COC(=O)Nc1nc2ccccc2[nH]1 [Carbendazim],31.6 ± 3.2,24.5 ± 2.5,10.6 ± 9.6,55.8 ± 5.5,58.8 ± 4.2,51.3 ± 6.5,76.8 ± 3.4,16.9 ± 1.1,25.7 ± 2.7,27.6 ± 2.8
CCNC(=O)[C@@H](C)OC(=O)Nc1ccccc1 [Carbetamide],49.6 ± 7.6,45.6 ± 4.6,37.2 ± 8,50.4 ± 4.4,47.2 ± 3.9,53.1 ± 6.2,69.9 ± 2.7,8.92 ± 0.88,14.1 ± 3.2,16.5 ± 2.4
Cc1ccc(-c2cc(C(F)(F)F)nn2-c2ccc(S(N)(=O)=O)cc2)cc1 [Celecoxib],45.7 ± 5.5,39.7 ± 1.8,32.4 ± 1.7,–,33.2 ± 6.9,47.6 ± 5,42.7 ± 2.1,1.77 ± 0.12,6.98 ± 2.7,8.5 ± 3.5
CCOP(=O)(OCC)OC(=CCl)c1ccc(Cl)cc1Cl [Chlorfenvinphos],0.151 ± 0.26,–,–,–,–,49.5 ± 8.3,–,43.3 ± 1.2,44.3 ± 3.6,44.1 ± 0.92
Nc1cnn(-c2ccccc2)c(=O)c1Cl [Chloridazon],53.7 ± 8.1,57.1 ± 3.2,51.8 ± 4.5,44.6 ± 2.8,37.3 ± 3,54.9 ± 6.3,73 ± 2.7,4.58 ± 0.31,7.42 ± 1.7,8.14 ± 1.6
Oc1ccc(Cl)cc1Cc1ccccc1 [Chlorophene],36.9 ± 6.1,29.2 ± 5.9,28.6 ± 5.6,41.5 ± 3.1,36.9 ± 4.1,48.5 ± 7.9,76.9 ± 7.2,13.4 ± 0.41,15.4 ± 0.93,15 ± 0.42
Cc1ccc(NC(=O)N(C)C)cc1Cl [Chlorotoluron],10.3 ± 0.88,9.6 ± 1.2,5.83 ± 0.28,61.6 ± 12,46 ± 3.5,50.6 ± 6.2,74.4 ± 2.2,32 ± 1.2,34.9 ± 1.4,36.3 ± 0.76
CN(C)C(=O)Nc1ccc(Oc2ccc(Cl)cc2)cc1 [Chloroxuron],11 ± 2.2,7.37 ± 0.66,4.53 ± 0.44,–,36.4 ± 1.9,49.8 ± 7.3,–,37.3 ± 1.7,43.6 ± 2.7,42.8 ± 0.94

Compound,chemical recovery by SPE of plasma ([1]; equilibration time (d): 1) [%],chemical recovery by SPE of plasma ([1]; equilibration time (d): 3) [%],chemical recovery by SPE of plasma ([1]; equilibration time (d): 6) [%],"chemical recovery [2, 4] [%]","chemical recovery [2, 5] [%]","chemical recovery [2, 6] [%]","chemical recovery [2, 7] [%]",chemical recovery into PDMS ([3]; equilibration time (d): 1) [%],chemical recovery into PDMS ([3]; equilibration time (d): 3) [%],chemical recovery into PDMS ([3]; equilibration time (d): 6) [%]
Cc1cc(C2CCCCC2)n(O)c(=O)c1 [Ciclopirox],2.83 ± 1.3,0.638 ± 1.1,0.232 ± 0.4,–,–,46.2 ± 16,–,22 ± 5,20 ± 2.6,21.7 ± 2.5
CC(C)(C)C(=O)C(Oc1ccc(Cl)cc1)n1ccnc1 (stereo not drawn) [Climbazole],1.65 ± 0.14,1.11 ± 0.35,0.487 ± 0.043,66.5 ± 6.8,37.7 ± 2.8,46.8 ± 4.8,75.1 ± 3.8,41.2 ± 2.2,40 ± 1,39.7 ± 1.4
CCC(=O)O[C@]1(C(=O)CCl)[C@@H](C)C[C@H]2[C@@H]3CCC4=CC(=O)C=C[C@]4(C)[C@@]3(F)[C@@H](O)C[C@@]21C [Clobetasol propionate],5.08 ± 8.8,7.02 ± 6.3,–,–,–,44.8 ± 8.7,–,28.2 ± 4.4,36.9 ± 2.1,37.2 ± 3.9
C[C@H]1C[C@H]2[C@@H]3CCC4=CC(=O)C=C[C@]4(C)[C@@]3(F)[C@@H](O)C[C@]2(C)[C@@]1(O)C(=O)CCl [Clobetasol],–,53.2 ± 3.3,–,–,–,49 ± 7.5,–,1.52 ± 0.65,4.53 ± 1.1,4.86 ± 0.99
CCOC(=O)C(C)(C)Oc1ccc(Cl)cc1 [Clofibrate],–,0.676 ± 1.2,–,–,3.33 ± 1.6,44.4 ± 7.8,23 ± 10,40.3 ± 0.95,42.9 ± 4.2,43 ± 5.5
Clc1cccc(Cl)c1NC1=NCCN1 [Clonidine],13.4 ± 3.1,12.7 ± 1.8,12.3 ± 3.9,28.5 ± 5.5,41.2 ± 3.6,39.6 ± 6.6,60.3 ± 8.8,7.21 ± 0.54,8.62 ± 0.81,6.38 ± 5.7
COC(=O)[C@H](c1ccccc1Cl)N1CCc2sccc2C1 [Clopidogrel],0.677 ± 0.17,1.02 ± 0.078,0.597 ± 0.026,–,–,39.3 ± 7.1,78.1 ± 6.1,26.7 ± 8.6,25.5 ± 7.8,28.3 ± 5.4
CN/C(=N\[N+](=O)[O-])NCc1cnc(Cl)s1 [Clothianidin],59.2 ± 6.8,62.2 ± 5.3,57 ± 2.6,54 ± 1.1,55.1 ± 3.7,50.9 ± 5.5,75.8 ± 4.7,0.813 ± 0.031,1.39 ± 0.29,1.64 ± 0.42
CN1CCN(C2=Nc3cc(Cl)ccc3Nc3ccccc32)CC1 [Clozapine],1.19 ± 0.08,1.11 ± 0.26,0.544 ± 0.065,0.74 ± 0.14,39.1 ± 3.5,27.7 ± 11,68.3 ± 3.6,0.000645 ± 0.0011,–,–
CN1C(=O)CC[C@H]1c1cccnc1 [Cotinine],6.83 ± 6.3,2.33 ± 0.49,4.13 ± 1.4,23.3 ± 6.5,6.77 ± 2.8,–,80.5 ± 3.5,6.6 ± 0.43,10.6 ± 2.5,11.6 ± 1.5
O=S(=O)(O)NC1CCCCC1 [Cyclamate],7.95 ± 6.1,5.41 ± 0.92,8.35 ± 3.4,5.77 ± 0.89,7.88 ± 2.3,–,71.8 ± 4.1,–,0.0113 ± 0.022,0.00679 ± 0.0059
Cc1cc(C2CC2)nc(Nc2ccccc2)n1 [Cyprodinil],0.89 ± 0.78,0.733 ± 0.65,0.362 ± 0.33,–,–,38.5 ± 5.9,69.9 ± 3.2,33.5 ± 1.8,36.1 ± 3.9,36.2 ± 1.2
CC(=O)[C@@]1(O)CC[C@H]2[C@@H]3C=C(Cl)C4=CC(=O)[C@@H]5C[C@@H]5[C@]4(C)[C@H]3CC[C@@]21C [Cyproterone],7.2 ± 0.97,4.61 ± 0.52,2.35 ± 0.21,–,–,44.8 ± 7,–,34.4 ± 3.3,39 ± 1.6,39.5 ± 1.2
Nc1nc(N)nc(NC2CC2)n1 [Cyromazine],–,–,5.59 ± 4.5,3.13 ± 0.61,2.36 ± 2.5,–,72.9 ± 2.3,–,–,1.4 ± 0.44
CN(C)NC(=O)CCC(=O)O [Daminozide],1.49 ± 2.5,0.206 ± 0.36,0.536 ± 0.28,–,–,3.23 ± 3.4,–,–,–,0.0133 ± 0.023
CC(C)Nc1nc(N)nc(Cl)n1 [Desethylatrazine],30.4 ± 3.7,26.3 ± 3.2,19 ± 2.4,61.1 ± 5.3,45.4 ± 3.1,51 ± 8.1,45 ± 15,11.2 ± 0.61,16.9 ± 1.5,18.5 ± 2.4
CC(C)(C)Nc1nc(N)nc(Cl)n1 [Desethylterbutylazine],10 ± 1.1,9.29 ± 1,6.03 ± 0.45,40.7 ± 4.8,42.1 ± 2.3,46.9 ± 5.4,–,38 ± 1.5,40.9 ± 0.82,42.7 ± 1.9
Clc1ccc2c(c1)CCc1cccnc1C2=C1CCNCC1 [Desloratadine],3.67 ± 0.83,4.32 ± 0.44,2.93 ± 0.67,2.22 ± 0.35,30.1 ± 1.7,–,59.9 ± 1.8,0.203 ± 0.15,0.0639 ± 0.025,0.452 ± 0.57
Nc1cn[nH]c(=O)c1Cl [Desphenyl chloridazon],2.76 ± 0.75,2.06 ± 0.86,3.77 ± 0.81,–,–,6.79 ± 4.2,–,0.0144 ± 0.043,0.133 ± 0.038,0.161 ± 0.2
